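Test compounds were applied to cells in 96-well plates for 48 hours at 5 doses. GI50 = concentration required for 50% inhibition of growth.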 Activity calls are given as the source filed them. No stated cut-off is given here; in the data, active = GI50 up to about 1.1 µM and inactive = higher.
What was measured:
Assay in all cases: NCI anticancer screen, dose series, 48 h
[1] = system: SK-MEL-5
[2] = system: NCI-H460
[3] = system: HT-29
[4] = system: SR
[5] = system: HOP-92
[6] = system: HOP-62
[7] = system: HCC 2998
[8] = system: SW-620
[9] = system: SF-539
[10] = system: HL-60
[11] = system: KM12
[12] = system: U-251
[13] = system: OVCAR-3
[14] = system: ACHN
[15] = system: Malme-3M
[16] = system: CCRF-CEM
[17] = system: OVCAR-4
[18] = system: RPMI-8226
[19] = system: CAKI-1
[20] = system: Hs-578T

Measured: GI50

C#CCCCCC#Cc1ccccc1C(=O)OC
inactive: [1] 58.6 µM | [2] > 100 µM | [3] 30.5 µM | [4] 2.28 µM | [5] 24.9 µM | [6] > 100 µM | [7] > 100 µM | [8] 21.1 µM | [9] > 100 µM | [10] 10.2 µM | [11] 58.2 µM | [12] 65.6 µM | [13] 32.5 µM | [14] 64.3 µM | [15] 77.6 µM | [16] 2.91 µM | [17] 58.9 µM | [18] 13.1 µM

CC1CC(c2ccc([N+](=O)[O-])cc2)=Nc2ccccc2[S+]1[O-] (configuration not stated)
inactive: [1] 15.5 µM | [19] 20.9 µM | [2] 17.1 µM | [3] 12.9 µM | [4] 22.5 µM | [5] 33.1 µM | [6] 26.1 µM | [7] 21.8 µM | [8] 15.3 µM | [9] 21.8 µM | [10] 15.1 µM | [11] 13 µM | [12] 13.6 µM | [14] 21.3 µM | [16] 11 µM | [17] 21.6 µM | [18] 4.58 µM

CCCCCCNC(=O)C(C)C1CCC2(C)C=CC(=O)C(C)=C2C1O (configuration not stated)
inactive: [1] > 74.1 µM | [19] > 100 µM | [2] > 100 µM | [3] > 100 µM | [5] 45.2 µM | [6] > 100 µM | [7] > 100 µM | [8] > 100 µM | [9] > 100 µM | [10] > 64.4 µM | [11] > 88.1 µM | [12] > 100 µM | [13] > 100 µM | [16] > 100 µM | [17] 96.8 µM | [18] > 70.3 µM

COc1cc(OC)cc(N2CCC(c3c(N)nc(N)nc3Cl)CC2)c1
inactive: [1] 24.8 µM | [19] > 100 µM | [2] 53.7 µM | [5] 48.4 µM | [6] 62.2 µM | [7] 67.5 µM | [8] 65 µM | [10] 18 µM | [11] 66.4 µM | [13] 83.9 µM | [14] 70.5 µM | [15] 31 µM | [16] 47.1 µM | [17] 91.8 µM | [18] 16.9 µM

Cc1cc2c(cc1Cl)Sc1n[nH]c(=O)n1S2(=O)=O
inactive: [1] 35.8 µM | [19] > 100 µM | [2] > 100 µM | [3] > 100 µM | [5] 54.3 µM | [6] > 100 µM | [7] > 100 µM | [8] > 100 µM | [9] > 100 µM | [10] > 100 µM | [11] > 100 µM | [12] > 100 µM | [13] 95.5 µM | [14] > 100 µM | [20] > 100 µM | [15] 40.6 µM | [16] > 100 µM | [17] > 100 µM

CC1(C)C(=O)OC(n2cc(F)c(=O)[nH]c2=O)C1=O (configuration not stated)
inactive: [2] 55.1 µM | [3] > 100 µM | [5] 26.5 µM | [6] 65.9 µM | [7] 46.6 µM | [8] > 100 µM | [9] 43.9 µM | [10] > 100 µM | [11] > 100 µM | [12] > 100 µM | [13] > 100 µM | [14] > 100 µM | [15] > 100 µM | [16] > 100 µM | [17] > 100 µM | [18] > 100 µM

CCOC(=O)CP(=S)(S)c1ccccc1 (configuration not stated)
inactive: [1] > 100 µM | [19] > 100 µM | [2] > 100 µM | [3] > 100 µM | [4] > 100 µM | [5] > 100 µM | [6] > 100 µM | [8] > 100 µM | [9] > 100 µM | [10] > 100 µM | [11] > 100 µM | [12] > 100 µM | [14] > 100 µM | [15] > 100 µM | [16] > 100 µM | [17] > 100 µM

Cc1ccc2c(O)cc(-c3ccc(F)cc3)nc2n1
inactive: [19] 42 µM | [3] 30.1 µM | [4] 7.4 µM | [5] 19.7 µM | [6] 48.8 µM | [7] 44 µM | [8] 28.6 µM | [9] 42.5 µM | [10] 14.1 µM | [11] 22.4 µM | [14] 42.6 µM | [20] 26.5 µM | [15] 32.4 µM | [16] 32.1 µM | [17] 44.5 µM | [18] 24.9 µM

— ChEMBL document CHEMBL1201862, “PubChem BioAssay data set” (2004)
